Test results reported in patent US7563621B2, “Absorbing organic reagents into diagnostic test devices by formation of amine salt complexes” (Siemens Healhcare Diagnostics Inc, priority 2003, dated 2009).
Values joined by “and” are separate entries in the source; they are usually repeats but may differ in a detail not shown here. Equal entries are not always repeated. Structures can show the parent of a compound that is named as a salt.

Key:
[1] = Butanol/water partitioning of dye salts (Example 2); settings: for Absorbance of Base in Butanol: butanol layer; for Partition Ratio of Butanol Absorbance to Water Absorbance: corrected by intensity factor; for Absorbance of Base in Water: water layer
Protocol: The five dye solutions were then treated with 1 equivalent of each base listed in Tables 1-5 (i.e., sodium hydroxide, TRIS, and triethylamine) to form salt solutions (i.e., sodium salt solutions, TRIS salt solutions, and triethylamine salt solutions respectively).
A 50 μL portion of each salt solution was then mixed with 950 μL water and 1000 μL butanol. […] Where necessary to deal with lingering interface phases, the samples were centrifuged.
Tests were then performed on the respective salt solutions to determine whether the salts of the respective dyes dissolved preferentially in butanol (a more lipophilic solvent) or water (a less lipophilic solvent). […] Spectroscopy versus the butanol blank or the water blank was done as 50 μL upper (butanol) or lower (aqueous) phase plus 950 μL corresponding solvent. All absorbances were blanked on solvent in a quartz cuvette and were baseline corrected at an absorbance of 900 nm before subsequent calculations to correct for cuvette placement, dust, etc. All absorbances were then measured at the wavelengths noted below.
Before determining the butanol to water absorbance levels, the absorbance of the solute in butanol was corrected for solvent dependent shifts in wavelength maximum and intensity based on the reference spectra of known gravimetric quantities of the dye salts in butanol and water. For such cases, the partition ratio of butanol absorbance to water absorbance was calculated using the following formula: Partition Ratio=Sample Absorbance in Butanol×Intensity Factor/Sample Absorbance in Water where the intensity factor was calculated using the following formula: Intensity Factor=Reference Sample Absorbance at λmax in water/Reference Sample Absorbance at λmax in butanol The intensity factor adjusts for those cases where the same concentration of dye in the two different solvents produced two different absorbances.

Lambda Light Chain = assay: Automated protein assay with pyrogallol red salts, 74 μM (Example 6); settings: Series #1 and #2; for Percent Detection as Percentage of HSA Detection: Lambda Light Chain
Protocol: (§1) The dilutor was programmed for reactions of 180 μL reagent+40 μL sample. […] The samples were phosphate buffered saline (blank), human serum albumin (HSA) 25 mg/dL, and other proteins (i.e., human IgG, […], and Lambda Light Chain) at 25 mg/dL. Absorbance data were collected on a Biotek, Powerwave X Microplate Absorbance reader using BioTek “KC Jr” software to determine the relative detection of the different proteins (i.e., HSA, human IgG, […], and Lambda Light Chain) using salts of pyrogallol red. Two sets of replicates of the different proteins were run. […] The protein response was determined by subtracting the phosphate buffered saline sample reaction result from the protein reaction result. […] The results for protein equivalence of the non-albumin proteins were expressed as a percentage of the protein colorimetric response to HSA as shown in Table 11 below.

[2] = Butanol/water partitioning of pyrogallol red dye salts (Example 3); format: physicochemical; settings: 276 nm; for Absorbance of Dye Salt in Butanol: butanol layer; for Absorbance of Dye Salt in Water: water layer
Protocol: Extractions were then performed in Mixxor extractors.

[3] = target: human serum albumin (HSA) (Homo sapiens, UniProt P02768); assay: Automated protein assay with pyrogallol red salts, 74 μM (Example 6); settings: HSA 25 mg/dL; 10 minutes, 37° C; 900 nm baseline subtracted; Series #1 and #2
Protocol: The dilutor was programmed for reactions of 180 μL reagent+40 μL sample. […] The samples were phosphate buffered saline (blank), human serum albumin (HSA) 25 mg/dL, and other proteins (i.e., human IgG, […], and Lambda Light Chain) at 25 mg/dL. Absorbance data were collected on a Biotek, Powerwave X Microplate Absorbance reader using BioTek “KC Jr” software to determine the relative detection of the different proteins (i.e., HSA, human IgG, […], and Lambda Light Chain) using salts of pyrogallol red. Two sets of replicates of the different proteins were run. […] The protein response was determined by subtracting the phosphate buffered saline sample reaction result from the protein reaction result.

human IgG = assay: as above; settings: Series #1 and #2; for average net absorbance at 600 nm after subtracting PBS sample reaction result: IgG 25 mg/dL, 10 minutes, 37° C, 900 nm baseline subtracted; for Percent Detection as Percentage of HSA Detection: IgG
Protocol: as §1

Tamm-Horsfall = Tamm-Horsfall (Homo sapiens, UniProt P07911); assay: as above; settings: Series #1 and #2; for average net absorbance at 600 nm after subtracting PBS sample reaction result: Tamm-Horsfall 25 mg/dL, 10 minutes, 37° C, 900 nm baseline subtracted; for Percent Detection as Percentage of HSA Detection: Tamm-Horsfall
Protocol: as §1

[4] = rosolic acid salts, aqueous reference saturated with butanol
[5] = rosolic acid salts, λmax 562 nm
[6] = rosolic acid salts, λmax 547 nm, four times less dilute solution measured, absorbance divided by four
[7] = erythrosin salts, reference absorbance in water / in butanol
[8] = 8-anilino-1-sulfonic acid salts
[9] = 8-anilino-1-sulfonic acid salts, λmax 269 nm
[10] = 8-anilino-1-sulfonic acid salts, reference absorbance in water / in butanol
[11] = 8-anilino-1-sulfonic acid salts, λmax 265 nm
[12] = bromocresol green salts, λmax 630 nm
[13] = bromocresol green salts, reference absorbance in water / in butanol
[14] = bromocresol green salts, λmax 615 nm

Sequence of human serum albumin (HSA) (P02768 25-609): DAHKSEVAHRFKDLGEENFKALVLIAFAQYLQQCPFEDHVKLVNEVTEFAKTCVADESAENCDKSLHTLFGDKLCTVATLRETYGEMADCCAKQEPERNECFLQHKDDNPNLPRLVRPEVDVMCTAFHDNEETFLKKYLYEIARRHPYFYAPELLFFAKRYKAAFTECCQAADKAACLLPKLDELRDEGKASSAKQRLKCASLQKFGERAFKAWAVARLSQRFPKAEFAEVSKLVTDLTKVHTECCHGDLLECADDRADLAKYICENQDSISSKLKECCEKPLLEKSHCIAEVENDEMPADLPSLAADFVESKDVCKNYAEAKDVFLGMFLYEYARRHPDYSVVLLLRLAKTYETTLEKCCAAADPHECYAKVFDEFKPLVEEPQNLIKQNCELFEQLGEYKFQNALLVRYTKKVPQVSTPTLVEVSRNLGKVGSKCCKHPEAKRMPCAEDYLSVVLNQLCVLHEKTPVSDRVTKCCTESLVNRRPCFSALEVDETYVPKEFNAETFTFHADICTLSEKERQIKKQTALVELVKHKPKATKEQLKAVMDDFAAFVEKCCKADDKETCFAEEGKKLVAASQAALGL

Molecule: O=C1C=CC(=C(c2ccc(O)cc2)c2ccc(O)cc2)C=C1 [Rosolic Acid, TRIS, rosolic acid]
- Raw Ratio of Butanol Absorbance to Water Absorbance ([1]; rosolic acid salts): 17
- Intensity Factor (IF) [1, 4]: 1.07
- Absorbance of Base in Butanol [1, 5]: 0.055
- Partition Ratio of Butanol Absorbance to Water Absorbance ([1]; rosolic acid salts): 18
- Absorbance of Base in Water [1, 6]: 0.003

Molecule: O=C(O)c1ccccc1-c1c2cc(I)c(=O)c(I)c-2oc2c(I)c(O)c(I)cc12 [Erythrosin, TRIS, erythrosin B]
- Raw Ratio of Butanol Absorbance to Water Absorbance ([1]; erythrosin salts): 0.31
- Absorbance of Base in Butanol ([1]; erythrosin salts, λmax 536 nm): 0.196
- Partition Ratio of Butanol Absorbance to Water Absorbance ([1]; erythrosin salts): 0.28
- Intensity Factor (IF) [1, 7]: 0.90
- Absorbance of Base in Water ([1]; erythrosin salts, λmax 528 nm): 0.631

Molecule: O=S(=O)(O)c1cccc2cccc(Nc3ccccc3)c12 [8-Anilino-1-Sulfonic Acid, Sodium Hydroxide] [reference compound]
- Raw Ratio of Butanol Absorbance to Water Absorbance [1, 8]: 1.9
- Absorbance of Base in Butanol [1, 9]: 0.121
- Partition Ratio of Butanol Absorbance to Water Absorbance [1, 8]: 1.8
- Intensity Factor (IF) [1, 10]: 0.98
- Absorbance of Base in Water [1, 11]: 0.065

Molecule: O=S(=O)(O)c1cccc2cccc(Nc3ccccc3)c12 [8-Anilino-1-Sulfonic Acid, Triethylamine, 8-anilino-1-sulfonic acid]
- Raw Ratio of Butanol Absorbance to Water Absorbance [1, 8]: 3.4
- Absorbance of Base in Butanol [1, 9]: 0.156
- Partition Ratio of Butanol Absorbance to Water Absorbance [1, 8]: 3.5
- Intensity Factor (IF) [1, 10]: 1.01
- Absorbance of Base in Water [1, 11]: 0.045

Molecule: O=S(=O)(O)c1cccc2cccc(Nc3ccccc3)c12 [8-Anilino-1-Sulfonic Acid, TRIS, 8-anilino-1-sulfonic acid]
- Raw Ratio of Butanol Absorbance to Water Absorbance [1, 8]: 2.6
- Absorbance of Base in Butanol [1, 9]: 0.129
- Partition Ratio of Butanol Absorbance to Water Absorbance [1, 8]: 2.3
- Intensity Factor (IF) [1, 10]: 0.89
- Absorbance of Base in Water [1, 11]: 0.050

Molecule: O=C(O)c1ccccc1-c1c2cc(I)c(=O)c(I)c-2oc2c(I)c(O)c(I)cc12 [Erythrosin, Triethylamine, erythrosin B]
- Raw Ratio of Butanol Absorbance to Water Absorbance ([1]; erythrosin salts): 0.40
- Absorbance of Base in Butanol ([1]; erythrosin salts, λmax 536 nm): 0.240
- Partition Ratio of Butanol Absorbance to Water Absorbance ([1]; erythrosin salts): 0.42
- Intensity Factor (IF) [1, 7]: 1.04
- Absorbance of Base in Water ([1]; erythrosin salts, λmax 528 nm): 0.596

Molecule: CC1=C(Br)C(=O)C(Br)=C/C1=C(/c1ccccc1S(=O)(=O)O)c1cc(Br)c(O)c(Br)c1C [Bromocresol Green, TRIS, bromocresol green]
- Raw Ratio of Butanol Absorbance to Water Absorbance ([1]; bromocresol green salts): 1.7
- Absorbance of Base in Butanol [1, 12]: 0.250
- Partition Ratio of Butanol Absorbance to Water Absorbance ([1]; bromocresol green salts): 4.2
- Intensity Factor (IF) [1, 13]: 2.47
- Absorbance of Base in Water [1, 14]: 0.146

Molecule: O=C(O)c1ccccc1-c1c2cc(I)c(=O)c(I)c-2oc2c(I)c(O)c(I)cc12 [Erythrosin, Sodium Hydroxide, erythrosin B, reference compound]
- Raw Ratio of Butanol Absorbance to Water Absorbance ([1]; erythrosin salts): 0.41
- Absorbance of Base in Butanol ([1]; erythrosin salts, λmax 536 nm): 0.237
- Partition Ratio of Butanol Absorbance to Water Absorbance ([1]; erythrosin salts): 0.38
- Intensity Factor (IF) [1, 7]: 0.93
- Absorbance of Base in Water ([1]; erythrosin salts, λmax 528 nm): 0.574

Molecule: O=C1C=CC(=C(c2ccc(O)cc2)c2ccc(O)cc2)C=C1 [Rosolic Acid, Triethylamine, rosolic acid]
- Raw Ratio of Butanol Absorbance to Water Absorbance ([1]; rosolic acid salts): 12
- Intensity Factor (IF) [1, 4]: 0.94
- Absorbance of Base in Butanol [1, 5]: 0.077
- Partition Ratio of Butanol Absorbance to Water Absorbance ([1]; rosolic acid salts): 11
- Absorbance of Base in Water [1, 6]: 0.006

Molecule: CC1=C(Br)C(=O)C(Br)=C/C1=C(/c1ccccc1S(=O)(=O)O)c1cc(Br)c(O)c(Br)c1C [Bromocresol Green, Triethylamine, bromocresol green]
- Raw Ratio of Butanol Absorbance to Water Absorbance ([1]; bromocresol green salts): 2.4
- Absorbance of Base in Butanol [1, 12]: 0.237
- Partition Ratio of Butanol Absorbance to Water Absorbance ([1]; bromocresol green salts): 6.3
- Intensity Factor (IF) [1, 13]: 2.58
- Absorbance of Base in Water [1, 14]: 0.097

Molecule: pyrogallol red [Triethylamine Pyrogallol Red Salt]
- Percent Detection as Percentage of HSA Detection (Lambda Light Chain; listed as triethylammonium): 3%

Molecule: O=C1C=CC(=C(c2ccc(O)cc2)c2ccc(O)cc2)C=C1 [Rosolic Acid, Sodium Hydroxide, rosolic acid, reference compound]
- Raw Ratio of Butanol Absorbance to Water Absorbance ([1]; rosolic acid salts): 1.7
- Intensity Factor (IF) [1, 4]: 0.69
- Absorbance of Base in Butanol [1, 5]: 0.147
- Partition Ratio of Butanol Absorbance to Water Absorbance ([1]; rosolic acid salts): 1.2
- Absorbance of Base in Water [1, 6]: 0.085

Molecule: O=c1ccc2c(-c3ccccc3S(=O)(=O)O)c3ccc(O)c(O)c3oc-2c1O [Triethanolamine Salt, pyrogallol red]
- Ratio of Butanol Absorbance to Water Absorbance ([2]; Triethanolamine): 0.15
- Absorbance of Dye Salt in Butanol ([2]; Triethanolamine): 0.044
- Absorbance of Dye Salt in Water ([2]; Triethanolamine): 0.296

Molecule: O=c1ccc2c(-c3ccccc3S(=O)(=O)O)c3ccc(O)c(O)c3oc-2c1O [Triethylamine Pyrogallol Red Salt, pyrogallol red]
- average net absorbance at 600 nm after subtracting PBS sample reaction result [3]: 0.0559 and 0.0600
- average net absorbance at 600 nm after subtracting PBS sample reaction result (human IgG): 0.0285 and 0.0284
- Percent Detection as Percentage of HSA Detection (human IgG): 48% and 51%
- Percent Detection as Percentage of HSA Detection (Lambda Light Chain): 3% and 9%
- average net absorbance at 600 nm after subtracting PBS sample reaction result (Tamm-Horsfall): 0.0135 and 0.0109
- Percent Detection as Percentage of HSA Detection (Tamm-Horsfall): 22% and 19%
- Ratio of Butanol Absorbance to Water Absorbance ([2]; Triethylamine): 0.23
- Absorbance of Dye Salt in Butanol ([2]; Triethylamine): 0.063
- Absorbance of Dye Salt in Water ([2]; Triethylamine): 0.274

Molecule: O=c1ccc2c(-c3ccccc3S(=O)(=O)O)c3ccc(O)c(O)c3oc-2c1O [Glucamine Pyrogallol Red Salt, pyrogallol red]
- average net absorbance at 600 nm after subtracting PBS sample reaction result [3]: 0.0618
- average net absorbance at 600 nm after subtracting PBS sample reaction result (human IgG): 0.0318
- Percent Detection as Percentage of HSA Detection (human IgG): 51%
- average net absorbance at 600 nm after subtracting PBS sample reaction result (Lambda Light Chain; Lambda Light Chain 25 mg/dL, 10 minutes, 37° C, 900 nm baseline subtracted): 0.0088
- Percent Detection as Percentage of HSA Detection (Lambda Light Chain): 14%
- average net absorbance at 600 nm after subtracting PBS sample reaction result (Tamm-Horsfall): 0.0123
- Percent Detection as Percentage of HSA Detection (Tamm-Horsfall): 20%
- Ratio of Butanol Absorbance to Water Absorbance ([2]; Glucamine): 0.09
- Absorbance of Dye Salt in Butanol ([2]; Glucamine): 0.030
- Absorbance of Dye Salt in Water ([2]; Glucamine): 0.328

Molecule: CC1=C(Br)C(=O)C(Br)=C/C1=C(/c1ccccc1S(=O)(=O)O)c1cc(Br)c(O)c(Br)c1C [Bromocresol Green, Sodium Hydroxide, bromocresol green, reference compound]
- Raw Ratio of Butanol Absorbance to Water Absorbance ([1]; bromocresol green salts): 1.8
- Absorbance of Base in Butanol [1, 12]: 0.315
- Partition Ratio of Butanol Absorbance to Water Absorbance ([1]; bromocresol green salts): 1.9
- Intensity Factor (IF) [1, 13]: 1.03
- Absorbance of Base in Water [1, 14]: 0.175

Molecule: pyrogallol red [Glucamine Pyrogallol Red Salt]
- Percent Detection as Percentage of HSA Detection (Lambda Light Chain): 14%
